Source: patent US7175829B2, “Contrast-enhanced diagnostic imaging method for monitoring interventional therapies” (Epix Pharmaceuticals, Inc., priority 1997, dated 2007)
Values belong to the compound of their own block, whether it stands above or below them.

Experiments:
[1] = molecular target: T1, human serum albumin (HSA) (Homo sapiens, UniProt P02768); assay: Relaxivity R1 at 20 MHz during ethanol denaturation of 4.5% HSA solutions; format: physicochemical; settings: for decrease/change in observed relaxivity during ethanol ablation: 4.5% HSA solutions, 0.31 mM Gd-DTPA, 0.08 mM MS-325, 37° C.; for R1 0.08 mM MS-325 / R1 0.31 mM Gd-DTPA: 4.5% HSA, 37° C.
T1 sequence (P02768 25-609): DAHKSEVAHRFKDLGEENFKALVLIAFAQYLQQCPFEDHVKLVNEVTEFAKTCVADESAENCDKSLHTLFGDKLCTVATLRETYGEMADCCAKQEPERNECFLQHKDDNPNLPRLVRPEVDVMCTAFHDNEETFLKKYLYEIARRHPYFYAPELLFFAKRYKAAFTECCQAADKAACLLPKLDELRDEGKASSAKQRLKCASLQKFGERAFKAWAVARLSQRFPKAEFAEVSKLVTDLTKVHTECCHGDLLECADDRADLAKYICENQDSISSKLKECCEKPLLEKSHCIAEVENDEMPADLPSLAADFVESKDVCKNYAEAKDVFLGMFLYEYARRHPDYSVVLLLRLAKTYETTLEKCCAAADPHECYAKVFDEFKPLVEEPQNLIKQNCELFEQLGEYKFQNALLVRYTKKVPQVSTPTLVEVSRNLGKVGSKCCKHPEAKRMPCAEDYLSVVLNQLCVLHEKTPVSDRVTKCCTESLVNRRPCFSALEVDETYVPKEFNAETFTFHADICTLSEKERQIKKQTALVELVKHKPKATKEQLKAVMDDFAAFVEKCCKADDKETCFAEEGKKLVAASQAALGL
Procedure: (§1) In these examples, the longitudinal relaxivities (R1, mM^−1 sec^−1) were monitored and obtained at 20 MHz by determining the relaxation rate (1/T1) of water protons in phosphate buffered saline (PBS, 150 mM NaCl, 10 mM phosphate, pH=7.4), in PBS solutions containing 4.5 wt % HSA, or in gels containing 4.5 wt % HSA and 1% Agar. The dependence of temperature on relaxivity (R1) was observed by varying the temperature of the samples with a circulating water bath and monitoring sample temperature with a thermocouple.
(§2) The following three samples were prepared in solutions of 4.5% HSA: (1) a control sample without a contrast agent; (2) a comparative sample with Gd-DTPA; and (3) a sample with MS-325. The samples with Gd-DTPA and MS-325 were prepared by adding an aqueous formulation (pH=7) comprising either Gd-DTPA or MS-325 to the 4.5% HSA solution.
Absolute ethanol was then titrated to each of the samples. T1 data (and thus R1 data (=1/T1)) was collected at 20 MHz and 37° C. after each addition of ethanol.

[2] = molecular target: T1, human serum albumin (HSA); assay: Relaxivity R1 at 20 MHz during thermal denaturation of 4.5% HSA solutions; format: physicochemical; settings: for R1: 20 MHz, 4.5% HSA solution; for R1 / net loss in R1 after denatured samples cooled to physiological temperature / loss in observed R1 during denaturation of the HSA: 0.3 mM Gd-DTPA, 0.1 mM MS-325; for net loss in R1 after denatured samples cooled to physiological temperature: denatured samples cooled to 37° C.; for loss in observed R1 during denaturation of the HSA: from immediately before denaturation (56.2° C.) to immediately after denaturation (85° C.)
Procedure: as §1, §2
The three samples were then used to monitor the thermal denaturation of the 4.5% HSA solutions. […] Each sample was then removed from the NMR and heated at 85° C. for 15 minutes to induce thermal denaturation of the HSA. Subsequently, the sample was returned to the NMR and T1 data was collected at this higher temperature.

[3] = molecular target: T1, human serum albumin (HSA); assay: T1-weighted MRI at 1.0 Tesla of agar phantoms containing 4.5% HSA during thermal denaturation; format: physicochemical; settings: for % Loss ROI: 1% agar, 4.5% HSA; for % Loss ROI / loss in signal intensity after denaturation and cooling / loss of signal intensity on thermal denaturation: 0.3 mM Gd-DTPA, 0.1 mM MS-325; for loss in signal intensity after denaturation and cooling: denatured phantoms cooled to 37° C.; for loss of signal intensity on thermal denaturation: phantoms heated above 50–60° C.
Procedure: The following samples were prepared in 1% agar gels containing 4.5% HSA: (1) a control sample without a contrast agent; (2) a comparative sample with Gd-DTPA; and (3) a sample with MS-325. The contrast agents were added in an amount sufficient such that the concentration of Gd-DTPA and MS-325 were 0.3 mM Gd-DTPA and 0.1 mM MS-325, respectively. Such agar gels containing 4.5% HSA are referred to as “phantoms”.
Initial T1-weighted MRI scans (FISP-3D, TR=15, TE=4, alpha=30) at 1.0 Tesla of the agar phantoms were then obtained at a temperature of about 25° C.
The phantoms were then heated in a circulating water bath with additional T1-weighted MRI scans obtained over time.

[4] = Rat plasma pharmacokinetic experiment (blood retention, AUC-conc.); format: in vivo; settings: two rats, tail vein injection of 0.1 mmol/kg Gd^153-labeled Gd-DTPA
Text: The incorporation into a contrast agent of this invention of a BHEM results in prolonged blood retention of the agent. […] Blood retention (as measured by AUC-conc) can be evaluated experimentally by administration of a contrast agent to rats, rabbits, or higher mammals. It has been observed that blood half-life extension is greater in rabbits and higher mammals than in rats. In this application, blood half-life data, as measured by AUC-conc., represents experimentation in rats.
For example, the average plasma concentrations observed after tail vein injection of 0.1 mmol/kg of Gd^153-labeled Gd-DTPA in two rats is shown in FIG. 1.

[5] = system: alpha 1-acid glycoprotein (AAG); settings: binding to alpha 1-acid glycoprotein; cited from earlier work
[6] = 85.0 °C, after heating at 85° C. for 15 minutes (HSA denatured)
[7] = 120 min, 35.5 °C (cooled after denaturation), 1.0 Tesla

- decrease/change in observed relaxivity during ethanol ablation [1]: 33 mM⁻¹ s⁻¹
- R1 0.08 mM MS-325 ([1]; ethanol 0.0 %): 42.216 mM⁻¹ s⁻¹
- R1 0.08 mM MS-325 ([1]; ethanol 0.9 %): 40.848 mM⁻¹ s⁻¹
- R1 0.08 mM MS-325 ([1]; ethanol 1.9 %): 39.541 mM⁻¹ s⁻¹
- R1 0.08 mM MS-325 ([1]; ethanol 2.8 %): 38.423 mM⁻¹ s⁻¹
- R1 0.08 mM MS-325 ([1]; ethanol 3.7 %): 37.064 mM⁻¹ s⁻¹
- R1 0.08 mM MS-325 ([1]; ethanol 4.5 %): 36.375 mM⁻¹ s⁻¹
- R1 0.08 mM MS-325 ([1]; ethanol 5.4 %): 35.234 mM⁻¹ s⁻¹
- R1 0.08 mM MS-325 ([1]; ethanol 6.2 %): 34.576 mM⁻¹ s⁻¹
- R1 0.08 mM MS-325 ([1]; ethanol 7.1 %): 33.895 mM⁻¹ s⁻¹
- R1 0.08 mM MS-325 ([1]; ethanol 7.9 %): 33.099 mM⁻¹ s⁻¹
- R1 0.08 mM MS-325 ([1]; ethanol 8.7 %): 32.224 mM⁻¹ s⁻¹
- R1 0.08 mM MS-325 ([1]; ethanol 10.2 %): 31.689 mM⁻¹ s⁻¹
- R1 0.08 mM MS-325 ([1]; ethanol 11.7 %): 30.403 mM⁻¹ s⁻¹
- R1 0.08 mM MS-325 ([1]; ethanol 16.4 %): 26.939 mM⁻¹ s⁻¹
- R1 0.08 mM MS-325 ([1]; ethanol 22.8 %): 21.456 mM⁻¹ s⁻¹
- R1 0.08 mM MS-325 ([1]; ethanol 28.3 %): 17.428 mM⁻¹ s⁻¹
- R1 0.08 mM MS-325 ([1]; ethanol 33.1 %): 14.082 mM⁻¹ s⁻¹
- R1 0.08 mM MS-325 ([1]; ethanol 37.3 %): 11.187 mM⁻¹ s⁻¹
- R1 0.08 mM MS-325 ([1]; ethanol 41.0 %): 9.6943 mM⁻¹ s⁻¹
- R1 0.08 mM MS-325 ([1]; ethanol 44.2 %): 8.9506 mM⁻¹ s⁻¹
- R1 0.08 mM MS-325 ([1]; ethanol 47.2 %): 8.7970 mM⁻¹ s⁻¹
- R1 ([2]; 7.3 °C): 31.2 mM⁻¹ s⁻¹
- R1 ([2]; 11.7 °C): 33.4 mM⁻¹ s⁻¹
- R1 ([2]; 16.2 °C): 36.0 mM⁻¹ s⁻¹
- R1 ([2]; 20.6 °C): 38.6 mM⁻¹ s⁻¹
- R1 ([2]; 25.0 °C): 40.6 mM⁻¹ s⁻¹
- R1 ([2]; 29.5 °C): 42.0 mM⁻¹ s⁻¹
- R1 ([2]; 33.9 °C): 42.8 mM⁻¹ s⁻¹
- R1 ([2]; 38.4 °C): 42.4 mM⁻¹ s⁻¹
- R1 ([2]; 42.8 °C): 42.3 mM⁻¹ s⁻¹
- R1 ([2]; 47.3 °C): 41.3 mM⁻¹ s⁻¹
- R1 ([2]; 51.7 °C): 39.5 mM⁻¹ s⁻¹
- R1 ([2]; 56.2 °C): 37.5 mM⁻¹ s⁻¹
- R1 ([2]; 60.6 °C): 33.3 mM⁻¹ s⁻¹
- R1 [2, 6]: 10.8 mM⁻¹ s⁻¹
- net loss in R1 after denatured samples cooled to physiological temperature [2]: 25 mM^−1 sec^−1
- loss in observed R1 during denaturation of the HSA [2]: 26.7 mM⁻¹ s⁻¹
- % Loss ROI ([3]; 0 min, 25.3 °C, 1.0 Tesla): 0.0000%
- % Loss ROI ([3]; 10 min, 29.6 °C, 1.0 Tesla): −4.4755%
- % Loss ROI ([3]; 20 min, 38.3 °C, 1.0 Tesla): −6.4144%
- % Loss ROI ([3]; 30 min, 45.0 °C, 1.0 Tesla): −11.241%
- % Loss ROI ([3]; 40 min, 53.0 °C, 1.0 Tesla): −26.153%
- % Loss ROI ([3]; 50 min, 64.7 °C, 1.0 Tesla): −49.262%
- % Loss ROI ([3]; 60 min, 72.8 °C, 1.0 Tesla): −69.499%
- % Loss ROI ([3]; 70 min, 87.1 °C, 1.0 Tesla): −76.469%
- % Loss ROI [3, 7]: −31.869%
- brightness of phantoms in initial T1-weighted MRI scans ([3]; about 25° C., 1.0 Tesla, versus phantoms with Gd-DTPA or 4.5% HSA alone): brighter
- loss in signal intensity after denaturation and cooling [3]: 32%
- loss of signal intensity on thermal denaturation [3]: 76%
Compound: O=C(O)CN(CCN(CC(=O)O)CC(COP(=O)(O)OC1CCC(c2ccccc2)(c2ccccc2)CC1)N(CC(=O)O)CC(=O)O)CC(=O)O (stereo not drawn) [MS-325]

Compound: O=C([O-])CN(CCN(CC(=O)[O-])CC(=O)O)CCN(CC(=O)[O-])CC(=O)O.[Gd+3] [Gd-DTPA, reference compound]
- decrease/change in observed relaxivity during ethanol ablation [1]: 0.3 mM⁻¹ s⁻¹
- R1 0.31 mM Gd-DTPA ([1]; ethanol 0.0 %): 4.1737 mM⁻¹ s⁻¹
- R1 0.31 mM Gd-DTPA ([1]; ethanol 16.1 %): 4.7191 mM⁻¹ s⁻¹
- R1 0.31 mM Gd-DTPA ([1]; ethanol 27.8 %): 5.0021 mM⁻¹ s⁻¹
- R1 0.31 mM Gd-DTPA ([1]; ethanol 36.6 %): 4.9347 mM⁻¹ s⁻¹
- R1 0.31 mM Gd-DTPA ([1]; ethanol 43.5 %): 4.7997 mM⁻¹ s⁻¹
- R1 0.31 mM Gd-DTPA ([1]; ethanol 49.0 %): 4.4623 mM⁻¹ s⁻¹
- R1 ([2]; 7.3 °C): 9.4556 mM⁻¹ s⁻¹
- R1 ([2]; 11.7 °C): 8.8125 mM⁻¹ s⁻¹
- R1 ([2]; 16.2 °C): 8.0690 mM⁻¹ s⁻¹
- R1 ([2]; 20.6 °C): 7.4182 mM⁻¹ s⁻¹
- R1 ([2]; 25.0 °C): 6.7426 mM⁻¹ s⁻¹
- R1 ([2]; 29.5 °C): 6.2117 mM⁻¹ s⁻¹
- R1 ([2]; 33.9 °C): 5.7089 mM⁻¹ s⁻¹
- R1 ([2]; 38.4 °C): 5.2984 mM⁻¹ s⁻¹
- R1 ([2]; 42.8 °C): 4.8917 mM⁻¹ s⁻¹
- R1 ([2]; 47.3 °C): 4.5992 mM⁻¹ s⁻¹
- R1 ([2]; 51.7 °C): 4.3083 mM⁻¹ s⁻¹
- R1 ([2]; 56.2 °C): 4.0592 mM⁻¹ s⁻¹
- R1 ([2]; 60.6 °C): 3.8806 mM⁻¹ s⁻¹
- R1 [2, 6]: 4.2102 mM⁻¹ s⁻¹
- net loss in R1 after denatured samples cooled to physiological temperature [2]: 0.5 mM^−1 sec^−1
- loss in observed R1 during denaturation of the HSA [2]: 0.1 mM⁻¹ s⁻¹
- binding to native or denatured HSA ([2]; inferred from R1 change during thermal denaturation): does not bind to either native or denatured HSA
- % Loss ROI ([3]; 0 min, 25.3 °C, 1.0 Tesla): −0.2456%
- % Loss ROI ([3]; 10 min, 29.6 °C, 1.0 Tesla): −5.1875%
- % Loss ROI ([3]; 20 min, 38.3 °C, 1.0 Tesla): −12.806%
- % Loss ROI ([3]; 30 min, 45.0 °C, 1.0 Tesla): −18.985%
- % Loss ROI ([3]; 40 min, 53.0 °C, 1.0 Tesla): −30.964%
- % Loss ROI ([3]; 50 min, 64.7 °C, 1.0 Tesla): −43.833%
- % Loss ROI ([3]; 60 min, 72.8 °C, 1.0 Tesla): −46.086%
- % Loss ROI ([3]; 70 min, 87.1 °C, 1.0 Tesla): −47.529%
- % Loss ROI [3, 7]: −10.190%
- loss in signal intensity after denaturation and cooling [3]: 10%
- loss of signal intensity on thermal denaturation [3]: only a modest change
- AUC-conc. from 0 to 10 minutes [4]: 3.5 mM·min

Compound: CN(C)CCCN1c2ccccc2Sc2ccc(Cl)cc21 [chloropromazine]
- Ka [5]: 35.4×10^5
